# Results taken from publication PMC11296140, “Cardenolides in the defensive fluid of adult large milkweed bugs have differential potency on vertebrate and invertebrate predator Na^+/K^+-ATPases” (Royal Society Open Science, 2024).
# pIC50: −log10 of the molar value.
# What was measured:
# [1] = system: black-headed grosbeak Na^+/K^+-ATPase; experiment: Na+/K+-ATPase inhibition assay, recombinant black-headed grosbeak enzyme expressed in Sf9 cells; type: biochemical, Pheucticus melanocephalus; settings: for pIC50: black-headed grosbeak enzyme, toxicity criteria of Agrawal et al.; for times less inhibitory than for pig: black-headed grosbeak vs porcine enzyme, IC50 fold difference
# Text: Pheucticus melanocephalus (black-headed grosbeak) ATPA1 and ATPB1 genes were synthesised (GeneArt; Invitrogen), codon optimised for Spodoptera frugiperda and cloned by GeneArt (Invitrogen) in pFastBac Dual plasmid with ATP1B1 under p10 promoter and ATP1A1 under PPH promoter. Final plasmids were verified by sequencing (accession number 196465).
# (§1) Preparations of Na^+/K^+-ATPases were obtained by homogenization of dissected brains (T. castanotis, zebra finch, and H. membranacea, giant Asian mantid), from commercially obtained enzyme (Sus scrofa domesticus, domestic pig), and expression of ATP1A1 and ATP1B1 subunits of the Na^+/K^+-ATPase of the black-headed grosbeak in insect Sf9 cells (Invitrogen).
# Recombinant Na^+/K^+-ATPases were expressed after infection of Sf9 cells with P0 virus stock following the optimized baculovirus expression system described by Scholz and Suppmann. The cells were pelleted by centrifugation, resuspended and sonicated to disrupt membranes and further centrifuged to remove cell debris. Cell membranes were pelleted by ultracentrifugation of the supernatant and finally resuspended in Milli-Q water (electronic supplementary material, method S2). Prior to the Na^+/K^+-ATPase inhibition assay, the black-headed grosbeak protein was verified by SDS–PAGE/Western blotting following the methods of Mohammadi et al. (see the electronic supplementary material, figure S1) and quantified by ELISA (see the electronic supplementary material, method S2d).
# (§2) The inhibitory effects of increasing concentrations of four cardenolides (ouabain, glucopyranosyl frugoside, frugoside and gofruside) on the black-headed grosbeak, zebra finch and giant Asian mantids were determined by photometric measurement of inorganic phosphate released from enzymatic ATP hydrolysis while subtracting the background ATPase activity following Petschenka et al. (see the electronic supplementary material, method S2e). The assessment of the inhibitory impact of glucopyranosyl calotropin was limited to the black-headed grosbeak and zebra finch species. This stemmed from the restricted availability of the compound, which only permitted testing on two predator pumps. The inhibitory effects of the five compounds for the porcine ATPase were taken from Rubiano-Buitrago et al. for comparison. All assays were run in three biological replicates, and the average of two technical replicates of each biological replicate was used for subsequent statistical analyses. Raw data are available in the data repository.
# For cardenolide inhibition, we converted the calibrated absorbance values to the percentage of non-inhibited Na^+/K^+-ATPase activity based on measurements from the control wells. We fitted inhibition curves by nonlinear fitting using a four-parameter logistic curve, with the top and bottom asymptotes set to 100 and 0, respectively, using the nlsLM function of the minipack.lm library in R [47]. From this we calculated the half maximal inhibitory concentration (IC50) values for each biological replicate. We compared the log10 IC50 values of individual cardenolides for each Na^+/K^+-ATPase enzyme using a linear model, testing the interaction between predator enzyme and cardenolide, and compared the inhibitory capacity of each compound pairwise using Tukey’s post hoc test. We calculated the fold differences between the IC50 values of individual cardenolides for black-headed grosbeak, zebra finch and giant Asian mantid versus the IC50 values on the porcine enzyme.
# [2] = system: giant Asian mantid Na^+/K^+-ATPase; experiment: Na+/K+-ATPase inhibition assay, giant Asian mantid neural tissue lysate; type: biochemical, Hierodula membranacea; settings: for pIC50: giant Asian mantid enzyme, toxicity criteria of Agrawal et al.; for potency compared with the porcine enzyme (in words): giant Asian mantid vs pig, log10 IC50, Tukey post hoc
# Experimental: Hierodula membranacea were obtained from M&M Wust—Mantids and More (Muhlheim am Main, Germany). Twenty-five individuals were obtained at the L4 stage and reared in individually double-ventilated boxes (19 × 19 × 19 cm). We provided them with greenbottle fly pupae as a food source, twice per week (two pupae during the nymph stages and three when they reached the adult stage). Mantids were sprayed with water every 2 days for hydration. The mantids were kept in an incubator (Snijders Scientific premium, Tilburg, The Netherlands, with an Imago 500 JUMO controller, Fulda, Germany) at 28°C and 70% humidity with an 18 L : 6 D cycle and a temperature of 18°C at night.
# as §1
# (§3) We sliced and weighed 5 mg from three different zebra finch brains and dissected the head capsule of five female giant Asian mantids to obtain the central body with intact optic lobes. Neural tissues were transferred to a 1 ml glass grinder (Wheaton Dounce tissue grinder, 1 ml, no. 357538) and homogenized in 500 μl distilled water. Zebra finch homogenates were transferred to a 50 ml Falcon tube on ice and resuspended with 15 ml resuspension buffer (0.25 M sucrose, 2 mM ethylenediaminetetraacetic acid and 25 mM HEPES/Tris; pH 7.0). Samples were sonicated at 85 W (Fisherbrand Model 120 Sonic Dismembrator, no. 12337338) for three 45 s intervals at 0°C, followed by centrifugation for 30 min at 10 000g (Sigma 3–18K, no. 10290) at 4°C to remove debris. The supernatant was collected and further centrifuged for 60 min at 100 000g at 4°C (Optima Max-XP tabletop ultracentrifuge, no. 393315) to isolate the membrane fraction. The pelleted membranes were washed twice and resuspended in 1 ml Milli-Q water (Milli-Q direct water purification system, Merck, no. C85358) and stored at −20°C. Giant Asian mantid homogenates were frozen to −80°C and then freeze-dried overnight and then resuspended in 1800 μl distilled water. Each sample was divided into aliquots of 600 μl and sonicated twice in an ice water bath (Bandelin Sonorex, no. Z659584) for 5 min. Samples were centrifuged at 3000 r.p.m. for 5 min and used to perform functional assays.
# as §2
# (§4) For cardenolide inhibition, we converted the calibrated absorbance values to the percentage of non-inhibited Na^+/K^+-ATPase activity based on measurements from the control wells. We fitted inhibition curves by nonlinear fitting using a four-parameter logistic curve, with the top and bottom asymptotes set to 100 and 0, respectively, using the nlsLM function of the minipack.lm library in R [47]. […]
# [3] = target: zebra finch Na^+/K^+-ATPase; experiment: Na+/K+-ATPase inhibition assay, zebra finch brain lysate; type: biochemical, Taeniopygia castanotis; settings: for pIC50: zebra finch enzyme, toxicity criteria of Agrawal et al.
# Experimental: Taeniopygia castanotis (zebra finch) brain tissues were obtained from a breeding colony at the University of St Andrews, UK, under Home Office licence 70/8159. Individual brains were dissected and flash-frozen on dry ice before being shipped from St Andrews to the Max Planck Institute for Chemical Ecology, Jena, Germany, where they were kept at −80°C until used in the assays.
# as §1, §3, §2
# as §4, with “[47]. From this we calculated the half maximal inhibitory concentration (IC50) values for each biological replicate.” for “[47].”
# [4] = system: O. fasciatus target site Na^+/K^+-ATPase; settings: cited from earlier work
# [5] = zebra finch vs porcine enzyme, IC50 fold difference
Compound,pIC50 [1],"potency compared with the porcine enzyme (in words) ([1]; black-headed grosbeak vs pig, log10 IC50, Tukey post hoc)","times more inhibitory than to pig ([2]; giant Asian mantid vs porcine enzyme, IC50 fold difference, not significant at alpha 0.05)",pIC50 [3],"times more inhibitory than to pig [3, 5]",potency towards the bug's own target site (in words) [4],times less inhibitory than for pig [1],inhibition of the enzyme (in words) ([1]; putatively resistant vertebrate predator),pIC50 [2],potency compared with the porcine enzyme (in words) [2],"times less inhibitory than for pig [3, 5]",inhibition of the enzyme (in words) ([3]; sensitive vertebrate enzymes),"times less inhibitory than for pig ([2]; giant Asian mantid vs porcine enzyme, IC50 fold difference)"
glucopyranosyl frugoside,> 5.00,not significantly different in potency,2.3 times,> 6.00,28.3 times,,,,,,,,
gofruside,,,,,,among the weakest inhibitors,352.5 times,weakest inhibitor,> 6.00,did not differ in inhibitory potential,12.7 times,,
glucopyranosyl calotropin,,,,,,,15.1 times,,,,3.4 times,effective inhibitor,
"C[C@@H]1O[C@@H](O[C@H]2C[C@@H](O)[C@]3(CO)[C@H]4[C@H](O)C[C@]5(C)[C@@H](C6=CC(=O)OC6)CC[C@]5(O)[C@@H]4CC[C@]3(O)C2)[C@H](O)[C@H](O)[C@H]1O [ouabain, reference compound]",,,,,,,18.9 times,,,,6.8 times,,4.3 times
C[C@H]1OC(O[C@H]2CC[C@@]3(CO)[C@H](CC[C@@H]4[C@@H]3CC[C@]3(C)[C@@H](C5=CC(=O)OC5)CC[C@]43O)C2)[C@H](O)[C@H](O)[C@@H]1O (stereo partly drawn) [frugoside],> 5.00,,,> 6.00,,the most inhibitory,6.8 times,,> 6.00,not significantly different in potency,2.6 times,,
